According to paper PMC8439242, “Pharmacokinetic study on the interaction between pachymic acid and bavachin and its potential mechanism” (Pharmaceutical Biology, 2021):

Test system: T1, CYP2C9
T1 construct: gene Cyp2c11; 'CYP2C9' is the human name, rat has no CYP2C9, rat Cyp2c forms turn over the diclofenac probe
Assay: diclofenac probe turnover in rat liver microsomes, LC-MS/MS
Assay type: biochemical
Details: 50 μM diclofenac; 0.5 mg/mL microsomal protein; 30 min incubation; 0-100 μM inhibitor

C=C(CC[C@@H](C(=O)O)[C@H]1[C@H](O)C[C@@]2(C)C3=C(CC[C@]12C)[C@@]1(C)CC[C@H](OC(C)=O)C(C)(C)[C@@H]1CC3)C(C)C [pachymic acid]
IC50: 21.2 µM
